For 19 compounds, inhibition results are on record in ChEMBL document CHEMBL5665443, “Enzyme Inhibitor Single Concentration assay results for EUbOPEN Chemogenomics Library” (2024).

Experiment [1] deals with Uracil-DNA glycosylase (Homo sapiens) (UniProt P13051). The note with it: Compound Concentration 10.0 uM.
Description: Inhibition of UNG by quantifying inhibition of UNG-mediated cleavage and dissociation of quenched duplex DNA oligonucleotides, measured as fluorescence at 594 nm. To generate a functional strand incision and increase turn-over this assay is coupled to APE1.
Experiment [2] addresses T1, Endonuclease 8-like 2 (Homo sapiens) (UniProt Q969S2).
T1 sequence (whole entry): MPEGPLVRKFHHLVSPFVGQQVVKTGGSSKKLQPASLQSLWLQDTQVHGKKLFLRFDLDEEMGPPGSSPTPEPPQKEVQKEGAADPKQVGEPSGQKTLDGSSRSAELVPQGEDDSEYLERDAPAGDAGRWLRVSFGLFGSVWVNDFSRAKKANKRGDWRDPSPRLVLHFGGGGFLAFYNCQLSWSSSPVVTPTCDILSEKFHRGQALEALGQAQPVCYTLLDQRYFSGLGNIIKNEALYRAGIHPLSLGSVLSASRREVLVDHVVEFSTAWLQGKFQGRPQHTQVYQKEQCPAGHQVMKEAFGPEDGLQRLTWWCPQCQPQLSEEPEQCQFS
The note with it: Compound Concentration 10.0 uM.
Description: Inhibition of NEIL2 by quantifying inhibition of NEIL2-mediated cleavage and dissociation of quenched duplex DNA oligonucleotides, measured as fluorescence at 594 nm.

For experiment [3], the target named is T2, Endonuclease III-like protein 1 (Homo sapiens) (UniProt P78549).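 Note: enzyme assay tracking NTHL1 cutting and release of a quenched double-stranded DNA oligo substrate, read as fluorescence at 594 nm.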
T2 sequence (whole entry): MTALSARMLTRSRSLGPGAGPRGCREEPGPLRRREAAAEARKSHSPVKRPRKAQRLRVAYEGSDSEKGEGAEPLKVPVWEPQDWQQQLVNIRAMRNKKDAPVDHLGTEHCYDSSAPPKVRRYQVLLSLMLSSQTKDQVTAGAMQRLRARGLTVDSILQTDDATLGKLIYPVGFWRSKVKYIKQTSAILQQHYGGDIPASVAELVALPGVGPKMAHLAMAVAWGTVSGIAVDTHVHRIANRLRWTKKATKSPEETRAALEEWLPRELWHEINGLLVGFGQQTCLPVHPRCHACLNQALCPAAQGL
As to conditions: Compound Concentration 10.0 uM, Hit No.
Description: Inhibition of NTHL1 by quantifying inhibition of NTHL1-mediated cleavage and dissociation of quenched duplex DNA oligonucleotides, measured as fluorescence at 594 nm.

Experiment [4] addresses G/T mismatch-specific thymine DNA glycosylase (Homo sapiens) (UniProt Q13569). As to conditions: Compound Concentration 10.0 uM, Hit No.
Description: Inhibition of TDG by quantifying inhibition of TDG-mediated cleavage and dissociation of quenched duplex DNA oligonucleotides, measured as fluorescence at 594 nm. To generate a functional strand incision and increase turn-over this assay is coupled to APE1.
Experiment [5] addresses N-glycosylase/DNA lyase (Homo sapiens) (UniProt O15527). The note with it: Compound Concentration 10.0 uM.
Description: Inhibition of OGG1 by quantifying inhibition of OGG1-mediated cleavage and dissociation of quenched duplex DNA oligonucleotides, measured as fluorescence at 594 nm. To generate a functional strand incision and increase turn-over this assay is coupled to APE1.
Experiment [6] concerns the target DNA-3-methyladenine glycosylase (Homo sapiens) (UniProt P29372). As to conditions: Compound Concentration 10.0 uM, Hit No.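 Note: enzyme assay where MPG cuts a quenched duplex DNA oligonucleotide probe, paired with APE1 for strand incision and turnover, read as fluorescence at 594 nm.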
Description: Inhibition of MPG by quantifying inhibition of MPG-mediated cleavage and dissociation of quenched duplex DNA oligonucleotides, measured as fluorescence at 594 nm. To generate a functional strand incision and increase turn-over this assay is coupled to APE1.
The target in experiment [7] is Endonuclease 8-like 1 (Homo sapiens) (UniProt Q96FI4). The note with it: Compound Concentration 10.0 uM, Hit No.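 Note: fluorescence at 594 nm from quenched duplex DNA oligonucleotides released by NEIL1 cleavage and strand separation, reported as reduction of this enzyme activity.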
Description: Inhibition of NEIL1 by quantifying inhibition of NEIL1-mediated cleavage and dissociation of quenched duplex DNA oligonucleotides, measured as fluorescence at 594 nm.
The target of experiment [8] is T3, Single-strand selective monofunctional uracil DNA glycosylase (Homo sapiens) (UniProt Q53HV7).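 Note: enzymatic SMUG1 assay coupled with APE1, reading fluorescence at 594 nm released when a quenched double-stranded DNA oligonucleotide substrate is cleaved and separated.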
T3 sequence (whole entry): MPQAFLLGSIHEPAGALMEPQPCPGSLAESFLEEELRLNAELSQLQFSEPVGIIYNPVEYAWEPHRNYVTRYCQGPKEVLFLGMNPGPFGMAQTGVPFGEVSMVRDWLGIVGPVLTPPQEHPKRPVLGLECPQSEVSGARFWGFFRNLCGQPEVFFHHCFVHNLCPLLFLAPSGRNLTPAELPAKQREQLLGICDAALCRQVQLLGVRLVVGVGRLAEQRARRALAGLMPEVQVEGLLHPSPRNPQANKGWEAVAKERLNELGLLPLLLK
As to conditions: Compound Concentration 10.0 uM.
Description: Inhibition of SMUG1 by quantifying inhibition of SMUG1-mediated cleavage and dissociation of quenched duplex DNA oligonucleotides, measured as fluorescence at 594 nm. To generate a functional strand incision and increase turn-over this assay is coupled to APE1.

The target in experiment [9] is Methyl-CpG-binding domain protein 4 (Homo sapiens) (UniProt O95243). The note with it: Compound Concentration 10.0 uM.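 Note: MBD4 activity read as fluorescence at 594 nm from cleavage and release of a quenched duplex DNA oligonucleotide, with APE1 coupled to incise the strand and raise turnover.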
Description: Inhibition of MBD4 by quantifying inhibition of MBD4-mediated cleavage and dissociation of quenched duplex DNA oligonucleotides, measured as fluorescence at 594 nm. To generate a functional strand incision and increase turn-over this assay is coupled to APE1.

The structures appear in SMILES notation. Where a SMILES comes first, the peptide text is derived from it. [ ]: non-standard residue; d: D form. The star is where a group is joined. dPhe(4-NHCONH2) = NC(=O)Nc1ccc(C[C@@H](N)C(=O)O)cc1; Dihydroorotyl(S) = O=C1C[C@@H](C(=O)*)NC(=O)N1; dPhe(4-Cl) = N[C@H](Cc1ccc(Cl)cc1)C(=O)O; Phe(4-NH2) = Nc1ccc(C[C@H](N)C(=O)O)cc1; d2Nal = N[C@H](Cc1ccc2ccccc2c1)C(=O)O; Lys(iPr) = CC(C)NCCCC[C@H](N)C(=O)O; d3Pal = N[C@H](Cc1cccnc1)C(=O)O

Sequence of Endonuclease 8-like 1 (Homo sapiens) (Q96FI4 whole entry): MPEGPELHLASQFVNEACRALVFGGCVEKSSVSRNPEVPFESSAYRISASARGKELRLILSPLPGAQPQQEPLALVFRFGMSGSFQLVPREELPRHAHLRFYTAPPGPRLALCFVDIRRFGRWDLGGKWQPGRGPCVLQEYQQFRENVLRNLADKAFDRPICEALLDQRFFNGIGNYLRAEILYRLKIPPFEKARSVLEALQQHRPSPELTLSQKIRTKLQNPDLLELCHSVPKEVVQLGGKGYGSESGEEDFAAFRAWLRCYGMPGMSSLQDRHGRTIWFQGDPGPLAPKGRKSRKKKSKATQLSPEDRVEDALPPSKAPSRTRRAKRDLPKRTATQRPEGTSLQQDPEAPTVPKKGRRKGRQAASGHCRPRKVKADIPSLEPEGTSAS
Sequence of Uracil-DNA glycosylase (Homo sapiens) (P13051 whole entry): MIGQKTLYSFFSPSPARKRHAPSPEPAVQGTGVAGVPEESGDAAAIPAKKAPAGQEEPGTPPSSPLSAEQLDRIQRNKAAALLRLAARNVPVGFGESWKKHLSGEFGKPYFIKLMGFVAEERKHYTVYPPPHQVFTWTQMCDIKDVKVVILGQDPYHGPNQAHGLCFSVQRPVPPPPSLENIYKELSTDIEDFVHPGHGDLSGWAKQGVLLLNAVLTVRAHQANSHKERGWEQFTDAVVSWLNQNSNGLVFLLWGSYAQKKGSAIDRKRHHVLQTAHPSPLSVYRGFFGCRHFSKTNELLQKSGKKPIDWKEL
Sequence of Methyl-CpG-binding domain protein 4 (Homo sapiens) (O95243 whole entry, the tested form may be a part): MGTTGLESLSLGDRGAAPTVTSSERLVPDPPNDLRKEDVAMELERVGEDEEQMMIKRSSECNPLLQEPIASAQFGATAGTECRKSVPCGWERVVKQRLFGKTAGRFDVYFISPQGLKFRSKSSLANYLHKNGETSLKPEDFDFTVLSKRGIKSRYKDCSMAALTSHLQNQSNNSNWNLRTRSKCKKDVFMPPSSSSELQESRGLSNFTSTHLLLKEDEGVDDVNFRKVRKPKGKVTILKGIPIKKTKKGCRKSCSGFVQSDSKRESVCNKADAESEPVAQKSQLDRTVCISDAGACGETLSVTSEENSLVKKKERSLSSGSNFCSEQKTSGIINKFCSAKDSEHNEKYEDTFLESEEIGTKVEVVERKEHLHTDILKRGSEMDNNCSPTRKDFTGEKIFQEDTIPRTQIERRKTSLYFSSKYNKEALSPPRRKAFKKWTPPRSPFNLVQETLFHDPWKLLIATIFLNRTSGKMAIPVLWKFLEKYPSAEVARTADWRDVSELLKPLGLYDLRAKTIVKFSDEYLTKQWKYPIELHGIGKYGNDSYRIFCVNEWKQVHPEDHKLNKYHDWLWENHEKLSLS
Sequence of DNA-3-methyladenine glycosylase (Homo sapiens) (P29372 whole entry): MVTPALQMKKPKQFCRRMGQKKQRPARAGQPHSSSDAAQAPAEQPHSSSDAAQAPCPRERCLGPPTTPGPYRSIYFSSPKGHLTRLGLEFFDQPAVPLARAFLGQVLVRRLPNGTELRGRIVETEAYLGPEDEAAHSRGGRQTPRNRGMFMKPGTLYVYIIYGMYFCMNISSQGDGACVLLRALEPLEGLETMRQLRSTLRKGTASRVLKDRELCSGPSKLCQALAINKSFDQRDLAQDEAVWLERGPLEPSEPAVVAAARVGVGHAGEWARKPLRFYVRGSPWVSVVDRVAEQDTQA
Sequence of G/T mismatch-specific thymine DNA glycosylase (Homo sapiens) (Q13569 whole entry): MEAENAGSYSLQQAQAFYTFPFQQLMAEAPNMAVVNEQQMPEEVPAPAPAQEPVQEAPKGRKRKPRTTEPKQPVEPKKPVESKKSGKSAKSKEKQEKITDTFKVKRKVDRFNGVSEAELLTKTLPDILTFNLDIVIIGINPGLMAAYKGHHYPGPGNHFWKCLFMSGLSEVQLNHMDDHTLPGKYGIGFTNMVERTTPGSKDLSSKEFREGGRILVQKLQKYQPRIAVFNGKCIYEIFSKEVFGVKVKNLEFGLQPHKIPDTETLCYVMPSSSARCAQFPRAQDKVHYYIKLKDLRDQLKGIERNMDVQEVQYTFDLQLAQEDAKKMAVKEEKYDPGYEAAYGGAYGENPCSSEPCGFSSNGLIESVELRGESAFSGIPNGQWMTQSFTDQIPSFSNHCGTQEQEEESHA
Sequence of N-glycosylase/DNA lyase (Homo sapiens) (O15527 whole entry): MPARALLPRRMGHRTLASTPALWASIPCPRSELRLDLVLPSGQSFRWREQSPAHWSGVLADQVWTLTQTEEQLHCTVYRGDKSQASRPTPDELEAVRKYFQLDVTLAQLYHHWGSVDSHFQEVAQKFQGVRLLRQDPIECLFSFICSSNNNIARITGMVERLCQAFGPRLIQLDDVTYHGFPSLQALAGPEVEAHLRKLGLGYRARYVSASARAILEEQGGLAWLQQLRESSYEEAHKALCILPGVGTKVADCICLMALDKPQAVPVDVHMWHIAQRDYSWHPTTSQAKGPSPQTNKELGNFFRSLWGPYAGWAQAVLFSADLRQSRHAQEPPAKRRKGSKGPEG

As usually defined, the inhibition is the change of the read-out against control, counted positive when it falls. As for `N#Cc1c(Oc2cccc(OS(=O)(=O)CCCC(F)(F)F)c2)cccc1C(F)(F)F`, the inhibition in [1] (Hit No) is -1.27%; in experiment [2] (Hit No), -7.74%; in [3], -1.91%; in [4], -4.05%; in [5] (Hit No) it was -7.69%; in experiment [6] it was 8.15%.
For the compound `OCc1cc(C(O)CNCCCCCCOCCCCc2ccccc2)ccc1O` (stereo not drawn), the inhibition in experiment [1] (Hit No) is -9.38%; in [2] (Hit No), 4.01%; in experiment [7], 8.39%; in [3] it was 11.4%; in experiment [4], 6.25%; in [5] (Hit No), -5.95%. Further, the inhibition in experiment [6] came to 0.951%.
Regarding `Cc1nn(C)c(C)c1-c1cccc2c1CC[C@H](N(C)C)C2`, the inhibition is -0.234% in experiment [2] (Hit No); 1.87% in [7]; 6.32% in [3]; -4.55% in experiment [4]; -7.75% in experiment [5] (Hit No); -9.58% in experiment [6].
Turning to `CS(=O)(=O)c1ccc(C(=O)Nc2ccc(Cl)c(-c3ccccn3)c2)c(Cl)c1`, the inhibition in [2] (Hit No) was 5.76%; in [7], 3.5%; in [3] it was -9.8%; in experiment [4] it was 6.01%; in experiment [6] it was 3.65%.
With `CN1[C@@H](CC(=O)c2ccccc2)CCC[C@H]1C[C@H](O)c1ccccc1`, the inhibition was -4.79% in experiment [1] (Hit No); 1.46% in [8] (Hit No); 1.64% in experiment [7]; -8.51% in experiment [3]; -5.94% in [4]; -6.7% in experiment [5] (Hit No). Besides, the inhibition in [6] is -4.83%.
Consider `COc1ccc(CCN(C)CCCC(C#N)(c2cc(OC)c(OC)c(OC)c2)C(C)C)cc1OC` (stereo not drawn), for which the inhibition is -3.3% in experiment [1] (Hit No); 2.71% in experiment [2] (Hit No); -0.579% in experiment [8] (Hit No); 5.05% in [7]; 3.04% in experiment [3]; -7.93% in [4]. Besides, the figures for the inhibition in experiment [5] (Hit No) and in experiment [6] were -7.76% and -3.7%, respectively.
`O=C(NCC1(N2CCN(c3ccccc3)CC2)CCOCC1)c1cccnc1Sc1ccccc1`: the inhibition in [1] (Hit No) was 1.03%; in experiment [2] (Hit No) it was -7.99%; in experiment [8] (Hit No), 2.13%; in experiment [7], -4.14%; in [3], 23.7%; in experiment [4] it was -0.15%. The inhibition in experiment [6] was 1.32%.
Regarding `CC[C@H]1CN2CCc3cc(OC)c(OC)cc3[C@@H]2C[C@@H]1C[C@H]1NCCc2cc(OC)c(OC)cc21`, the inhibition is 4.51% in [2] (Hit No); -7.35% in [8] (Hit No); -0.5% in [7]; 3.39% in experiment [3]; -0.514% in [4]; -9.31% in [6].
Turning to `C[C@H](CCC(=O)O)[C@H]1CC[C@H]2[C@@H]3CC[C@@H]4C[C@H](O)CC[C@]4(C)[C@H]3CC[C@]12C`, the inhibition was -8.43% in [1] (Hit No); 8% in experiment [2] (Hit No); -9.19% in experiment [8] (Hit No); 10% in experiment [7]; 21.8% in experiment [4]; 4.17% in [5] (Hit No). For the same compound, the inhibition in experiment [6] came out at 15.2%; in experiment [9] (Hit Yes) it was 140%.
Consider `O=S1(=O)c2cccc3cccc(c23)N1CCCN1CCN(c2ccc(F)cc2)CC1`, for which the inhibition was -2.78% in [1] (Hit No); -0.483% in [2] (Hit No); 12.8% in experiment [8] (Hit No); -4.8% in experiment [7]; 18.1% in [3]; 19% in [4]. The inhibition is 7.99% in experiment [5] (Hit No) and -8.54% in experiment [6].
Regarding `O=C1CSC(=O)N1C(CCc1ccncc1)COc1ccc(-c2cccc([N+](=O)[O-])c2)cc1` (stereo not drawn), the inhibition was -2.95% in experiment [1] (Hit No); 3.73% in experiment [2] (Hit No); 6.99% in experiment [8] (Hit No); 2.68% in [7]; 17.1% in experiment [3]; -8.91% in [4]. Moreover, the inhibition in [5] (Hit No) is -1.32%; in experiment [6], -5.43%.
Regarding `CSc1nc(NC2CCCC2)c([N+](=O)[O-])c(NC2CCCC2)n1`, the inhibition in experiment [2] (Hit No) is 7.5%; in [7], 2.61%; in experiment [3] it was 21%; in [4], 7.68%; in experiment [5] (Hit No) it was -2.94%; in [6], -2.56%.
In the case of `N#Cc1c[nH]c2c(C(=O)N3CCN(CCc4ccc(F)cc4)CC3)cccc12`, the inhibition was -9.6% in [1] (Hit No); -4.73% in [2] (Hit No); -8.12% in experiment [8] (Hit No); -5.41% in experiment [3]; -8.41% in experiment [5] (Hit No); -7.3% in experiment [6].
In the case of `COC(=O)[C@H](CCCN=C(N)N)NC(=O)CCCc1c(-c2ccccc2)[nH]c2c(F)cc(F)cc12`, the inhibition in [1] (Hit No) is -5.65%; in experiment [2] (Hit Yes), 38.2%; in [7] it was 5.58%; in experiment [3], -5.41%; in experiment [4] it was 16.3%; in experiment [5] (Hit No), -3.54%. Moreover, the inhibition in experiment [6] was found to be 5.31%.
With `Cc1nnsc1C(=O)Nc1ccc(-n2nc(C(F)(F)F)cc2C(F)(F)F)cc1`, the inhibition is -0.15% in experiment [1] (Hit No); 0.414% in experiment [2] (Hit No); 15.8% in [8] (Hit No); 0.306% in experiment [7]; 14.6% in experiment [3]; 15.7% in experiment [5] (Hit No). Besides, the inhibition in experiment [6] is -1.63%.
For the compound `CC(=O)N[C@H](Cc1ccc2ccccc2c1)C(=O)N[C@H](Cc1ccc(Cl)cc1)C(=O)N[C@H](Cc1cccnc1)C(=O)N[C@@H](CO)C(=O)N[C@@H](Cc1ccc(NC(=O)[C@@H]2CC(=O)NC(=O)N2)cc1)C(=O)N[C@H](Cc1ccc(NC(N)=O)cc1)C(=O)N[C@@H](CC(C)C)C(=O)N[C@@H](CCCCNC(C)C)C(=O)N1CCC[C@H]1C(=O)N[C@H](C)C(N)=O` (Ac-[d2Nal][dPhe(4-Cl)][d3Pal]S[Phe(4-NH2)](Dihydroorotyl(S))[dPhe(4-NHCONH2)]L[Lys(iPr)]P[dA]-NH2), the inhibition in experiment [1] (Hit Yes) worked out at 86.3%; in experiment [2] (Hit No) it was 25.7%; in experiment [8] (Hit Yes), 53.4%; in experiment [3], 7.79%; in [4] it was 56.9%; in experiment [5] (Hit Yes), 98.4%. Also, the inhibition in experiment [6] is 22.6%.
Turning to `CC[C@@H](C)Nc1nc(C)nc2c(-c3ccc(OC)nc3C)c(C)nn12`, the inhibition in experiment [1] (Hit No) is -5.14%; in experiment [2] (Hit No), 2.26%; in [8] (Hit No), 10.2%; in [7], 4.1%; in [4] it was 17.1%; in experiment [5] (Hit No), -1.59%. In addition, the inhibition amounted to 9.17% in [6] and 8.63% in [9] (Hit No).
Take `CC1CCN(CC[C@H]2CCCN2S(=O)(=O)c2cccc(O)c2)CC1`: the inhibition in [1] (Hit No) is -9.71%; in [2] (Hit No) it was -5.22%; in experiment [8] (Hit No), 3.5%; in experiment [7], 8.25%; in experiment [4] it was 2.43%; in experiment [5] (Hit No) it was -3.4%. Besides, the results for the inhibition in experiment [6] and in experiment [9] (Hit No) were -7.22% and 6.36%, respectively.
`C[C@H](CO)Nc1nc(SCc2cccc(Cl)c2F)nc2[nH]c(=O)sc12`: the inhibition in experiment [1] (Hit No) is -8.73%; in [2] (Hit No), -2.98%; in [8] (Hit No), 6.22%; in experiment [7], 8.99%; in [4], 22%; in experiment [5] (Hit No), 5.5%. For the same compound, the figures for the inhibition in experiment [6] and in experiment [9] (Hit No) were 2.92% and 13.6%, respectively.
